# Results: patent US10350273B2, “Treatment of hormonal disorders of growth” (The United States of America, as represented by the …, priority 2014, dated 2019)
# “Also recorded” adds a separate entry of the source. Numbered stars: 1 amine (or outer) side, 2 acyl side, 3 side chain; on linkers, the order of the positions; unused ones are H or OH. Square brackets hold non-standard residues; d marks the D form. Side chains are listed from the residue outwards. Ends that are not written are not given here. Peptide text beside a SMILES is read from it. * marks the point of attachment. Ethylenediamine = C(CN[*:2])N[*:1]; Hyp = O=C(O)[C@@H]1C[C@@H](O)CN1; Phg = N[C@H](C(=O)O)c1ccccc1; CO = O=C([*:1])[*:2]; Bn = c1ccc(C*)cc1
# How the values were obtained:
# somatotroph cells [1] = assay: GH secretion by primary pituitary tumor cell culture of an X-LAG patient; assay type: cell-based, human; details: for GH change compared to control wells: overnight incubation; for effect on GH secretion (in words): X-LAG pituitary tumor cell culture, dose range; for GH response on co-incubation with GHRH: co-incubation with GHRH 10^−10M
# Procedure: (§1) A surgical sample of the human pituitary adenoma of the patient mentioned in example 11 in Dulbecco's modified Eagle's medium (DMEM) was dissociated mechanically and enzymatically as described by Jaquet et al. (Hormonal regulation of prolactin release by human prolactinoma cells cultured in serum-free conditions. Horm Res 22 153-163, 1985). A sample of the medium in the postoperative sample was retained before further preparation. A total of 50,000 tumor cells per well were plated in 24 well plates coated with extracellular matrix from bovine endothelial corneal cells required for cell adhesion. The cells were cultured in DMEM depleted of L-Valine (D-Valine-DMEM) to block fibroblast proliferation, supplemented with 10% fetal calf serum, penicillin (100 U/ml), streptomycin (100 μg/ml), and glutamine ([…]) at 37° C. in a water-saturated atmosphere containing 7% CO2. After 48 h, culture medium was changed to D-Valine DMEM containing 1% ITS (Insulin Transferin Selenium) and 1% fetal calf serum for another 48 h. Cells were incubated with drugs at a range of concentrations (10^−12-10^−7 mol/L) for 16 h (overnight). All the experiments were performed in triplicate. The medium was collected and stored frozen for GH and PRL measurements.
# (§2) The somatostatin analogs (SSAs), octreotide and pasireotide were purchased from Novartis (Basel, Switzerland), Forskolin was obtained from Sigma-Aldrich (St. Quentin Fallavier, France), Cabergoline was obtained from Pfizer (Pharmacia & Upjohn Kalamazoo, USA), MK-0677 (ghrelin analog) was obtained from Europeptide, Argenteuil France, and MSP (ghrelin receptor-GHS-R inverse agonist) came from Polypeptide Laboratories (Strasbourg, France). The GHRH receptor antagonist, acetyl-(D-Arg^2)-GHRH(1-29) amide, and GnRH1-5 were obtained from Bachem, Europe.
# (§3) GH secretion by the primary culture cells was quantified using the ALPHALISA® human growth hormone GH kit (Perkin Elmer USA). Prolactin levels were measured in culture medium using a commercial IRMA kit (PRL IRMA Kit-Beckman Coulter Immunotech, Marseille, France). Human GHRH concentrations in plasma were measured using an in-house double-antibody radio-immunoassay as described previously and using a standard solution of Stimu-GH 50 μg (Ferring) and the matrix was non-used culture medium (Girard et al.; Eur. J. Clin. Pharmacol., 32, 507-513, 1987).
# somatotroph cells [2] = assay: Prolactin (PRL) secretion by primary pituitary tumor cell culture of an X-LAG patient; assay type: cell-based, human; details: for effect on prolactin secretion (in words): X-LAG pituitary tumor cell culture, dose range; for PRL change compared to control wells: overnight incubation, mean±SEM; for PRL response on co-incubation with GHRH: co-incubation with GHRH 10^−10M
# Procedure: as §1, §2, §3
# X-LAG patients = assay: Clinical treatment of X-LAG patients; assay type: in vivo, human; details: for IGF-1 levels under treatment: octreotide 150 mcg sc t.i.d. together with cabergoline 0.5 mg/week, one patient; for hormonal or growth control: X-LAG patients
# Source text: Among the nine patients who underwent primary surgical resection, three had immediate GH/PRL control and excessive growth was halted. For those patients in whom growth and GH secretion were not controlled by their initial surgery, the subsequent management was complex. […] Therefore, it can be concluded that the GH receptor antagonist pegvisomant represents a useful option for IGF-1 and growth control.
# The patient was a person with no family history of growth disorders. […] […] the patient began to grow excessively in terms of length and weight, exceeding the 97th percentile of their growth charts […]. […] A random level of GHRH was raised, although no potential ectopic sources were identified. […] As chronic treatment with somatostatin analogs and dopamine agonists for 12 months had no effect on the patient's excessive growth and their pituitary lesion began impinging on the optic chiasm, the patient was referred for neurosurgical treatment.
# cAMP production = assay: cAMP assay (HTRF-cAMP Femto Kit) in cells from the tumor; assay type: cell-based, human; details: 10^−6M, 3 h, 37° C.
# Procedure: Following the pharmacological co-incubation studies described in Example 13 the response of the tumor cells in terms of cAMP production was assessed. The cells from tumor were seeded into 24-well plates (4×10^4 cells/well). After 24 h in culture, the cAMP concentration was determined using the HTRF-cAMP Femto Kit (CisBio International, Bagnols-sur-Cèze, France), as described previously Cuny et al. (Mol Cell Endocrinol 355, 106-113, 2012). According to the manufacturer's protocol, the cells were detached using trypsin, seeded onto 96-well plates in suspension, and incubated at 37° C. for 3 h in the presence of forskolin. The HTRF assay reagents were then added directly into the 96-well plates.
# sporadic X-LAG patient = assay: Dynamic pituitary hormone tests (TRH test, GnRH test) in the X-LAG patient; assay type: in vivo, human
# Source text: Fluctuations in elevated GHRH levels also occurred, and these were partially but not completely in phase with alterations in GH. While the elevated prolactin levels varied by less than +7% from baseline throughout the study, changes in GH levels were more marked (−23.6% to +61.5%).
# pituitary = details: cited from earlier work
# somatotroph cells [3] = assay: GH secretion by primary pituitary tumor cell culture of an X-LAG patient; assay type: cell-based, human; details: 10^−13 M, overnight incubation, mean±SEM
# [4] = TRH 125 μg IV or GnRH 25 μg IV, 0, 15, 30 and 90 minutes
# [5] = listed as acetyl-(D-Arg^2)-GHRH(1-29)
compound,measurement,setting,value
CC(C)(N)C(=O)N[C@H](COCc1ccccc1)C(=O)N1CCC2(CC1)CN(S(C)(=O)=O)c1ccccc12 [MK-0677],GH change compared to control wells,"somatotroph cells [1]; concentration not given, mean±SEM",+15±0.5%
same,effect on prolactin secretion (in words),somatotroph cells [2],no effect on prolactin secretion
C=CCN1C[C@H](C(=O)N(CCCN(C)C)C(=O)NCC)C[C@@H]2c3cccc4[nH]cc(c34)C[C@H]21 [cabergoline],GH change compared to control wells,"somatotroph cells [1]; 10^−8M, mean±SEM",−32±0.8%
same,PRL change compared to control wells,somatotroph cells [2]; concentration not given,−15±0.04%
same,IGF-1 levels under treatment,X-LAG patients,remained consistently elevated
C=C[C@@]1(C)CC(=O)[C@]2(O)[C@@]3(C)[C@@H](O)CCC(C)(C)[C@@H]3[C@H](O)[C@H](OC(C)=O)[C@@]2(C)O1 [forskolin],rise in cAMP production compared with controls,cAMP production,+396±1.9%
CC(C)[C@@H]1NC(=O)[C@H](CCCCN)NC(=O)[C@@H](Cc2c[nH]c3ccccc23)NC(=O)[C@H](Cc2ccc(O)cc2)NC(=O)[C@@H](NC(=O)[C@H](N)Cc2ccc3ccccc3c2)CSSC[C@@H](C(=O)N[C@H](C(N)=O)[C@@H](C)O)NC1=O [lanreotide],hormonal or growth control,X-LAG patients,did not lead to hormonal or growth control
C[C@@H](O)[C@@H]1NC(=O)[C@H](CCCCN)NC(=O)[C@@H](Cc2c[nH]c3ccccc23)NC(=O)[C@H](Cc2ccccc2)NC(=O)[C@@H](NC(=O)[C@H](N)Cc2ccccc2)CSSC[C@@H](C(=O)N[C@H](CO)[C@@H](C)O)NC1=O [octreotide],effect on GH secretion (in words),somatotroph cells [1],no inhibitory effect on GH or prolactin; also recorded: no inhibition in GH secretion
same,PRL change compared to control wells,somatotroph cells [2]; 10^−9M,−26±0.03%
same,effect on prolactin secretion (in words),somatotroph cells [2],no inhibitory effect on GH or prolactin
same,hormonal or growth control,X-LAG patients,did not lead to hormonal or growth control
same,IGF-1 levels under treatment,X-LAG patients,remained consistently elevated
NCCCC[C@@H]1NC(=O)[C@@H](Cc2c[nH]c3ccccc23)NC(=O)[C@H](c2ccccc2)NC(=O)[C@@H]2C[C@@H](OC(=O)NCCN)CN2C(=O)[C@H](Cc2ccccc2)NC(=O)[C@H](Cc2ccc(OCc3ccccc3)cc2)NC1=O [pasireotide] (cyclo([Hyp]([CO-Ethylenediamine])[Phg][dW]KY(Bn)F)),GH change compared to control wells,"somatotroph cells [1]; 10^−8M, mean±SEM",−18±0.6%
same,effect on GH secretion (in words),somatotroph cells [1],small inhibitory effect on GH secretion
same,effect on prolactin secretion (in words),somatotroph cells [2],no effect on prolactin secretion
GHRH: Human GHRH (hGHRH) peptide is comprised of 44 amino acid residues (YADAIFTNSYRKVLGQLSARKLLQDIMSRQQGESNQERGARARL),GH change compared to control wells,"somatotroph cells [1]; 10^−10 M, mean±SEM",+41±0.4%
same,effect on GH secretion (in words),somatotroph cells [1],further stimulated
same,PRL change compared to control wells,somatotroph cells [2]; 10^−8M,+11±0.4%
same,effect on prolactin secretion (in words),somatotroph cells [2],further stimulated
Ghrelin,effect on GH secretion (in words),somatotroph cells [1],minor stimulatory effect on GH secretion
"GnRH1-5: fragment of gonadotropin-releasing hormone, putative GPR101 agonist (QHWSY; ends and bridges not checked)",GH change compared to control wells,"somatotroph cells [1]; 10^−10 M, mean±SEM",+15±1.5%
same,effect on GH secretion (in words),somatotroph cells [1],little effect on GH
same,effect on prolactin secretion (in words),somatotroph cells [2],did not stimulate prolactin release
"GnRH: gonadotropin-releasing hormone, 25 μg IV GnRH (HRF-AYERST) (QHWSYGLRPG; not fully specified (residue 1, C-terminus); UniProt P01148 24-33, looked up)",GH level after GnRH administration,"sporadic X-LAG patient; 25 μg IV GnRH, baseline GH 212 ng/mL",50 ng/mL
same,GH response (in words),sporadic X-LAG patient; [4],suppression of GH levels at 30 mins
same,GHRH level response (in words),sporadic X-LAG patient; [4],not markedly altered; also recorded: GHRH levels remained unaltered; also recorded: remained elevated throughout
same,prolactin response (in words),sporadic X-LAG patient; [4],prolactin rose mildly
Tyr-Ala-Asp-Ala-Ile-Phe-Thr-Asn-Ser-Tyr-Arg-Lys-Val-Leu-Gly-Gln-Leu-Ser-Ala-Arg-Lys-Leu-Leu-Gln-Asp-Ile-Met-Ser-Arg-NH2 [GHRH(1-29)],potency relative to native GHRH,pituitary,≥ 50%
acetyl-(D-Arg^2)-GHRH(1-29) amide (Ac-Y[dR]DAIFTNSYRKVLGQLSARKLLQDIMSR-NH2; SMILES CC[C@H](C)[C@H](NC(=O)[C@H](C)NC(=O)[C@H](CC(=O)O)NC(=O)[C@@H](CCCNC(=N)N)NC(=O)[C@H](Cc1ccc(O)cc1)NC(C)=O)C(=O)N[C@@H](Cc1ccccc1)C(=O)N[C@H](C(=O)N[C@@H](CC(N)=O)C(=O)N[C@@H](CO)C(=O)N[C@@H](Cc1ccc(O)cc1)C(=O)N[C@@H](CCCNC(=N)N)C(=O)N[C@@H](CCCCN)C(=O)N[C@H](C(=O)N[C@@H](CC(C)C)C(=O)NCC(=O)N[C@@H](CCC(N)=O)C(=O)N[C@@H](CC(C)C)C(=O)N[C@@H](CO)C(=O)N[C@@H](C)C(=O)N[C@@H](CCCNC(=N)N)C(=O)N[C@@H](CCCCN)C(=O)N[C@@H](CC(C)C)C(=O)N[C@@H](CC(C)C)C(=O)N[C@@H](CCC(N)=O)C(=O)N[C@@H](CC(=O)O)C(=O)N[C@H](C(=O)N[C@@H](CCSC)C(=O)N[C@@H](CO)C(=O)N[C@@H](CCCNC(=N)N)C(N)=O)[C@@H](C)CC)C(C)C)[C@@H](C)O) [acetyl-(D-Arg^2)-GHRH (1-29) amide],GH change compared to control wells,"somatotroph cells [1]; 10^−11M, mean±SEM",+13±1.9%
same,effect on GH secretion (in words),somatotroph cells [1],reduce basal and stimulated GH and prolactin secretion in a dose dependent manner
same,GH response on co-incubation with GHRH,somatotroph cells [1],complete abolition
same,GH response on co-incubation with GHRH,somatotroph cells [1]; [5],abolished the stimulatory effect of GHRH itself
same,GH change compared to control wells,somatotroph cells [1]; highest GHRH-receptor antagonist dose studied,approximately −34±1.9%
same,GH change compared to control wells,somatotroph cells [3],+18±0.8%
same,PRL change compared to control wells,somatotroph cells [2]; 10^−8M,−73±0.1%
same,effect on prolactin secretion (in words),somatotroph cells [2],reduce basal and stimulated GH and prolactin secretion in a dose dependent manner
same,PRL response on co-incubation with GHRH,somatotroph cells [2],complete abolition
same,PRL response on co-incubation with GHRH,somatotroph cells [2]; [5],abolished the stimulatory effect of GHRH itself
pegvisomant,control of IGF1 (and growth),X-LAG patients; postoperative use in X-LAG patients,control of IGF1 in all five X-LAG patients; also recorded: control of IGF1 and excessive growth in three patients
